# Data as given in patent US20190105367A1, “ANTIMICROBIAL 4-OXOQUINOLIZINES” (Emergent Product Development Gaithersburg Inc., priority 2011, published 2019).
# Like-named read-outs stand apart in the source and are kept apart here.
# How the values were obtained:
# [1] = test system: strains of A. baumannii and one strain of Acinetobacter sp.; test: MIC with sub-inhibitory concentrations (0.25x MIC) of polymyxin B, panel of Acinetobacter strains (Example 4); format: cell-based
# [2] = test system: A. baumannii ATCC 19606; test: MIC without and with sub-inhibitory polymyxin B (Example 4); format: cell-based, Acinetobacter baumannii
# [3] = test system: A. baumannii ATCC 19606; test: Preliminary MBC without and with sub-inhibitory polymyxin B (Example 4); format: cell-based, Acinetobacter baumannii; details: for MBC: 2nd experiment
# [4] = test system: A. baumannii J2; test: MIC without and with sub-inhibitory polymyxin B (Example 4); format: cell-based, Acinetobacter baumannii; details: A. baumannii J2
# [5] = test system: Acinetobacter sp. (H064200250); test: as above; format: cell-based
# [6] = test system: A. baumannii A329; test: Preliminary MBC without and with sub-inhibitory polymyxin B (Example 4); format: cell-based, Acinetobacter baumannii; details: for MBC: 2nd experiment
# [7] = test system: A. baumannii A387; test: MIC without and with sub-inhibitory polymyxin B (Example 4); format: cell-based, Acinetobacter baumannii; details: A. baumannii A387
# [8] = test system: A. baumannii A387; test: Preliminary MBC without and with sub-inhibitory polymyxin B (Example 4); format: cell-based, Acinetobacter baumannii; details: for MBC: 2nd experiment
# [9] = test system: A. baumannii A390; test: MIC without and with sub-inhibitory polymyxin B (Example 4); format: cell-based, Acinetobacter baumannii; details: A. baumannii A390
# [10] = test system: A. baumannii A14; test: Preliminary MBC without and with sub-inhibitory polymyxin B (Example 4); format: cell-based, Acinetobacter baumannii; details: 2nd experiment
# Procedure, shortened: (§1)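 Read-out: the minimum concentration at which colonies were reduced by ca. 90% relative to positive control, usually seen as isolated colonies or a clear plate. Plates had been kept 18-20 hours at 37° C beforehand.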
# [11] = test system: A. baumannii A390; test: as above; format: cell-based, Acinetobacter baumannii; details: for MBC: 2nd experiment
# Procedure, shortened: as §1
# [12] = test system: A. baumannii A473; test: as above; format: cell-based, Acinetobacter baumannii; details: for MBC: 2nd experiment
# Procedure, shortened: as §1
# [13] = test system: A. baumannii NCTC 13301; test: as above; format: cell-based, Acinetobacter baumannii; details: A. baumannii NCTC 13301, preliminary MBC; for MBC: 2nd experiment
# Procedure, shortened: as §1
# [14] = test system: A. baumannii A401; test: MIC without and with sub-inhibitory polymyxin B (Example 4); format: cell-based, Acinetobacter baumannii; details: A baumannii A 401; for MIC: 2nd experiment
# [15] = test system: A. baumannii A401; test: Preliminary MBC without and with sub-inhibitory polymyxin B (Example 4); format: cell-based, Acinetobacter baumannii; details: for MBC: 2nd experiment
# [16] = test system: A. baumannii A472; test: MIC without and with sub-inhibitory polymyxin B (Example 4); format: cell-based, Acinetobacter baumannii; details: A. baumannii A472; for MIC: 2nd experiment
# [17] = test system: A. baumannii A472; test: Preliminary MBC without and with sub-inhibitory polymyxin B (Example 4); format: cell-based, Acinetobacter baumannii; details: A. baumannii A472, preliminary MBC; for MBC: 2nd experiment
# [18] = test system: A. baumannii A473; test: MIC without and with sub-inhibitory polymyxin B (Example 4); format: cell-based, Acinetobacter baumannii; details: A. baumannii A473
# [19] = test system: A. baumannii A489; test: as above; format: cell-based, Acinetobacter baumannii; details: A. baumannii A489
# [20] = test system: A. baumannii NCTC 13301; test: as above; format: cell-based, Acinetobacter baumannii; details: A. baumannii NCTC 13301, 1st experiment
# [21] = test system: A. baumannii NCTC 13301; test: as above; format: cell-based, Acinetobacter baumannii; details: A. baumannii NCTC 13301, 2nd experiment
# [22] = test system: A. baumannii A14; test: as above; format: cell-based, Acinetobacter baumannii; details: 1st experiment
# [23] = test system: A. baumannii A14; test: as above; format: cell-based, Acinetobacter baumannii; details: A. baumannii A14, 2nd experiment
# [24] = test system: A. baumannii A14; test: Preliminary MBC without and with sub-inhibitory polymyxin B (Example 4); format: cell-based, Acinetobacter baumannii; details: A. baumannii A14, preliminary MBC, 1st experiment
# [25] = A. baumannii ATCC 19606, +0.06 μg/ml PB, 2nd experiment
# [26] = A. baumannii ATCC 19606, +0.06 μg/ml polymyxin B, 1st experiment
# [27] = +[…] polymyxin B, 1st experiment
# [28] = without polymyxin B, 1st experiment
# [29] = Acinetobacter spp. H064200250 (OXA51), +[…] PB, 2nd experiment
# [30] = ratio, PB 0.06 μg/ml, 1st experiment
substance,measurement,setting,value
"8-[(3S)-3-aminocyclopentyl]-1- cyclopropyl-7-fluoro-9-methyl- 4-oxo-quinolizine-3-carboxylic acid [Compound 10, reference compound]",Change of activity (MIC) in presence of polymyxin B compared to without polymyxin B,[1],less potentiated
same,"Range ratios MIC without PB/MIC with PB Oct. 1, 2008 n = 8",[1]; 1st experiment,1-8
same,"MIC range with PB (0.25x MIC) Oct. 1, 2008 n = 8","[1]; 1st experiment, […] polymyxin B, ATCC 19606, A329, A390 and A473 not taken",0.5 to 8 µg/mL
same,"Range ratios MIC without PB/MIC with PB Oct. 14, 2008 n = 11",[1]; 2nd experiment,1-8
same,"MIC range with PB (0.25x MIC) Oct. 14, 2008 n = 11","[1]; 2nd experiment, 0.06 μg/ml polymyxin B, all strains except the ATCC strain",0.25 to 2 µg/mL
same,MIC,[2]; [25],0.06 µg/mL
same,MIC without PB/MIC + PB,[2]; [25],2
same,MIC +0.06 μg/ml PB,[2]; [26],0.03 µg/mL
same,MIC without PB/MIC + PB,"[2]; A. baumannii ATCC 19606, ratio, PB 0.06 μg/ml, 1st experiment",256
same,MIC,"[2]; A. baumannii ATCC 19606, without PB, 2nd experiment",0.125 µg/mL
same,MIC,"[2]; A. baumannii ATCC 19606, without PB, value in parentheses marked *, mark not explained, 2nd experiment",0.06 µg/mL
same,Activity against the A. baumannii ATCC 19606 strain,[2]; with and without sub-inhibitory concentrations of polymyxin B,potent activities
same,MBC,"[3]; A. baumannii ATCC 19606, +0.06 μg/ml PB",0.03 µg/mL
same,MBC +0.06 μg/ml PB,[3]; [26],0.03 µg/mL
same,MBC,"[3]; A. baumannii ATCC 19606, without PB",0.125 µg/mL
same,MIC,"[4]; +[…] PB, 2nd experiment",0.25 µg/mL
same,MIC without PB/MIC + PB,"[4]; +[…] PB, 2nd experiment",8
same,MIC +[…] PB,[4]; [27],1 µg/mL
same,MIC without PB/MIC + PB,"[4]; ratio, PB […], 1st experiment",2
same,MIC,"[4]; without PB, 2nd experiment",2 µg/mL
same,MIC without PB,[4]; [28],2 µg/mL
same,MIC +[…] PB,[5],1 µg/mL
same,MIC without PB/MIC + PB,[5],2
same,MIC,[5]; [29],1 µg/mL
same,MIC without PB/MIC + PB,[5]; [29],1
same,MIC,"[5]; Acinetobacter spp. H064200250 (OXA51), without PB, 2nd experiment",1 µg/mL
same,MIC without PB,"[5]; Acinetobacter spp. H064200250, without polymyxin B, 1st experiment",2 µg/mL
same,MBC,"[6]; A. baumannii A329, +0.06 μg/ml PB",2 µg/mL
same,MBC,"[6]; A. baumannii A329, without PB",2 µg/mL
same,MBC without PB,"[6]; A. baumannii A329, without polymyxin B, 1st experiment",2 µg/mL
same,MIC,"[7]; +0.06 μg/ml PB, 2nd experiment",0.5 µg/mL
same,MIC without PB/MIC + PB,"[7]; +0.06 μg/ml PB, 2nd experiment",1
same,MIC without PB/MIC + PB,[7]; [30],1
same,MIC,"[7]; without PB, 2nd experiment",0.5 µg/mL
same,MIC without PB,[7]; [28],0.5 µg/mL
same,MBC,"[8]; A. baumannii A387, +0.06 μg/ml PB",0.5 µg/mL
same,MBC +0.06 μg/ml PB,"[8]; A. baumannii A387, +0.06 μg/ml polymyxin B, 1st experiment",0.25 µg/mL
same,MBC,"[8]; A. baumannii A387, without PB",0.5 µg/mL
same,MBC without PB,"[8]; A. baumannii A387, without polymyxin B, 1st experiment",0.5 µg/mL
same,MIC,"[9]; +0.06 μg/ml PB, 2nd experiment",0.5 µg/mL
same,MIC without PB/MIC + PB,"[9]; +0.06 μg/ml PB, 2nd experiment",2
same,MIC,"[9]; without PB, 2nd experiment",1 µg/mL
same,MIC without PB,[9]; [28],1 µg/mL
same,MBC,"[10]; A. baumannii A14, +0.06 μg/ml PB",1 µg/mL
same,MBC,"[10]; A. baumannii A14, without PB",2 µg/mL
same,MBC,"[11]; A. baumannii A390, +0.06 μg/ml PB",0.5 µg/mL
same,MBC,"[11]; A. baumannii A390, without PB",1 µg/mL
same,MBC without PB,"[11]; A. baumannii A390, without polymyxin B, 1st experiment",1 µg/mL
same,MBC,"[12]; A. baumannii A473, +0.06 μg/ml PB",0.5 µg/mL
same,MBC,"[12]; A. baumannii A473, without PB",1 µg/mL
same,MBC without PB,"[12]; A. baumannii A473, without polymyxin B, 1st experiment",0.5 µg/mL
same,MBC,[13]; +[…] PB,0.5 µg/mL
same,MBC +[…] PB,[13]; [27],1.00 µg/mL
same,MBC,[13]; without PB,2 µg/mL
same,MBC without PB,[13]; [28],2 µg/mL
same,MIC,[14]; +0.06 μg/ml PB,1 µg/mL
same,MIC +0.06 μg/ml PB,"[14]; +0.06 μg/ml polymyxin B, 1st experiment",1.00 µg/mL
same,MIC without PB/MIC + PB,[14]; [30],2
same,MIC,[14]; without PB,1 µg/mL
same,MIC without PB,[14]; [28],2 µg/mL
same,MBC,"[15]; A baumannii A 401, +0.06 μg/ml PB",1 µg/mL
same,MBC +0.06 μg/ml PB,"[15]; A baumannii A 401, +0.06 μg/ml polymyxin B, 1st experiment",1.00 µg/mL
same,MBC,"[15]; A baumannii A 401, without PB",1 µg/mL
same,MBC without PB,"[15]; A baumannii A 401, without polymyxin B, 1st experiment",1 µg/mL
same,MIC,[16]; +[…] PB,0.5 µg/mL
same,MIC +[…] PB,[16]; [27],0.5 µg/mL
same,MIC without PB/MIC + PB,"[16]; ratio, PB […], 1st experiment",2
same,MIC,[16]; without PB,1 µg/mL
same,MIC without PB,[16]; [28],1 µg/mL
same,MBC,[17]; +[…] PB,0.5 µg/mL
same,MBC +[…] PB,[17]; [27],0.25 µg/mL
same,MBC,[17]; without PB,1 µg/mL
same,MBC without PB,[17]; [28],1 µg/mL
same,MIC,"[18]; +0.06 μg/ml PB, 2nd experiment",0.5 µg/mL
same,MIC without PB/MIC + PB,"[18]; +0.06 μg/ml PB, 2nd experiment",0
same,MIC without PB,[18]; [28],1 µg/mL
same,MIC,"[19]; +[…] PB, 2nd experiment",0.5 µg/mL
same,MIC without PB/MIC + PB,"[19]; +[…] PB, 2nd experiment",2
same,MIC +[…] PB,[19]; [27],1.00 µg/mL
same,MIC without PB/MIC + PB,"[19]; ratio, PB […], 1st experiment",1
same,MIC,"[19]; without PB, 2nd experiment",1 µg/mL
same,MIC without PB,[19]; [28],1 µg/mL
same,MIC +[…] PB,[20]; +[…] polymyxin B,1.00 µg/mL
same,MIC without PB/MIC + PB,"[20]; ratio, PB […]",8
same,MIC without PB,[20]; without polymyxin B,8 µg/mL
same,MIC,[21]; +[…] PB,0.5 µg/mL
same,MIC without PB/MIC + PB,[21]; +[…] PB,4
same,MIC,[21]; without PB,2 µg/mL
same,MIC +0.06 μg/ml PB,[22]; +0.06 μg/ml polymyxin B,8.00 µg/mL
same,MIC without PB/MIC + PB,"[22]; ratio, PB 0.06 μg/ml",1
same,MIC without PB,[22]; without polymyxin B,8 µg/mL
same,MIC,[23]; +0.06 μg/ml PB,2 µg/mL
same,MIC without PB/MIC + PB,[23]; +0.06 μg/ml PB,1
same,MIC,[23]; without PB,2 µg/mL
same,MBC +0.06 μg/ml PB,[24]; +0.06 μg/ml polymyxin B,2.00 µg/mL
same,MBC without PB,[24]; without polymyxin B,2 µg/mL
